Test results as given in patent US8273773B2 (priority 2008, dated 2012).
Where two headings read alike, the source gives them in different places.

Target: T1, HCV polymerase (NS5B570n-Con1) (Hepatitis C virus genotype 1b, UniProt Q9WMX2)
T1 construct: contains a 21 amino acid deletion at the C-terminus relative to the full-length HCV polymerase; 6-histidine (N); made in house; host or cells: E. coli strain BL21(DE) pLysS (pET17b)
Assay: biochemical
Design: species or system HCV Con1 strain

[1] = IC50 HCV NS5B RNA Polymerase Assay, values without asterisk, 20 nM NS5B570n-Con1 enzyme, 20 nM cIRES RNA template
[2] = IC50 HCV NS5B RNA Polymerase Assay (values with asterisk), values with asterisk: cIRES RNA template, 3 nM NS5B570n-Con1
[3] = read-out: IC50 HCV NS5B RNA Polymerase Assay, values without asterisk, 20 nM NS5B570n-Con1 enzyme, 20 nM cIRES RNA template
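Note: recombinant His-tagged enzyme from E. coli, radiolabeled nucleotide incorporation into acid-insoluble RNA read by scintillation after filtration, no-enzyme background subtracted, activity relative to positive control.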

Row | Compound | IC50 [1] [nM] | IC50 [2] [nM] | other results
1 | COc1c(CC(C#N)c2ccc(NS(C)(=O)=O)cc2)cc(-c2ccc[nH]c2=O)cc1C(C)(C)C (stereo not shown) [I-177, N-(4-{2-[3-tert-Butyl-2-methoxy-5-(2-oxo-1,2-dihydro-pyridin-3-yl)-phenyl]-1-cyano-ethyl}-phenyl)-methanesulfonamide] | 8 |  | 
2 | COc1c(/C=C/c2ccc(NS(C)(=O)=O)cc2)cc(-c2ccc(C)[nH]c2=O)cc1C1(Cl)CC1 [I-265] |  | 5 | 
3 | O=C(O)c1ccc([N+](=O)[O-])c(Cl)c1 [I-131] |  |  | IC50 (values without asterisk, 20 nM NS5B570n-Con1 enzyme, 20 nM cIRES RNA template, read-out: IC50 HCV NS5B RNA Polymerase Assay): 3 nM
4 | COc1c(C(=O)NCc2ccncc2)cc(-c2ccc[nH]c2=O)cc1C(C)(C)C [I-38] | 932 |  | 
5 | COc1c(/C=C/c2ccc(NS(C)(=O)=O)cc2)cc(-c2cc(Cl)c[nH]c2=O)cc1C1(Cl)CC1 [I-264] |  | 5 | 
6 | CCOc1nc(-c2cc(-c3ccc[nH]c3=O)cc(C(C)(C)C)c2OC)cc2ccc(NS(C)(=O)=O)cc12 [II-9, N-{3-[3-tert-Butyl-2-methoxy-5-(2-oxo-1,2-dihydro-pyridin-3-yl)-phenyl]-1-ethoxy-isoquinolin-7-yl}-methanesulfonamide] | 3 |  | 
7 | COc1c(C(=O)Nc2cccc(CO)c2C)cc(-c2ccc[nH]c2=O)cc1C(C)(C)C [I-78] | 1130 |  | 
8 | COc1c(/C=C/c2ccc(N)nc2)cc(-c2cc(F)c[nH]c2=O)cc1C(C)(C)C [I-174] |  |  | IC50 [3]: 12 nM
9 | COc1c(/C=C/c2ccccc2C#N)cc(-c2ccc[nH]c2=O)cc1C(C)(C)C [I-238, 2-{(E)-2-[3-tert-Butyl-2-methoxy-5-(2-oxo-1,2-dihydro-pyridin-3-yl)-phenyl]-vinyl}-benzonitrile] |  | 2 | 
10 | CS(=O)(=O)Nc1ccc(/C=C/c2cc(-c3ccc[nH]c3=O)cc(C3(F)CCC3)c2)cc1 [I-271, N-(4-{(E)-2-[3-(1-Fluoro-cyclobutyl)-5-(2-oxo-1,2-dihydro-pyridin-3-yl)-phenyl]-vinyl}-phenyl)-methanesulfonamide] |  | 4 | 
11 | COc1c(/C=C/c2ccc(NS(C)(=O)=O)cc2)cc(-c2ccc(COCCO)[nH]c2=O)cc1C(C)(C)C [I-225, N-[4-((E)-2-{3-tert-Butyl-5-[6-(2-hydroxy-ethoxymethyl)-2-oxo-1,2-dihydro-pyridin-3-yl]-2-methoxy-phenyl}-vinyl)-phenyl]-methanesulfonamide] |  | 6 | 
12 | COc1c(C(=O)NCC(C)c2ccccc2)cc(-c2ccc[nH]c2=O)cc1C(C)(C)C (stereo not shown) [I-35] | 1230 |  | 
13 | COc1c(/C=C/c2ccc(NS(C)(=O)=O)nc2)cc(-c2ccc[nH]c2=O)cc1C(C)(C)C [I-172] | 3 |  | 
14 | COc1c(/C=C/c2ccc(N)nn2)cc(-c2cc(F)c[nH]c2=O)cc1C(C)(C)C [I-183] |  |  | IC50 [3]: 7 nM
15 | COc1c(/C=C/c2ccncc2)cc(-c2ccc[nH]c2=O)cc1C(C)(C)C [I-240, 3-[3-tert-Butyl-4-methoxy-5-((E)-2-pyridin-4-yl-vinyl)-phenyl]-1H-pyridin-2-one] |  | 5 | 
16 | COc1c(NC(=O)c2ccc(NS(C)(=O)=O)cc2)cc(-c2ccc(C)[nH]c2=O)cc1C(C)(C)C [I-286] | 19 |  | 
17 | COCc1cc(NS(C)(=O)=O)ccc1/C=C/c1cc(-c2ccc(C)[nH]c2=O)cc(C(C)(C)C)c1OC [I-208, N-(4-{(E)-2-[3-tert-Butyl-2-methoxy-5-(6-methyl-2-oxo-1,2-dihydro-pyridin-3-yl)-phenyl]-vinyl}-3-methoxymethyl-phenyl)-methanesulfonamide] |  | 1 | 
18 | COc1c(/C=C/c2ccc(NS(C)(=O)=O)cc2CN2CCOC2=O)cc(-c2cc(F)c[nH]c2=O)cc1C(C)(C)C [I-220, N-[4-{(E)-2-[3-tert-Butyl-5-(5-fluoro-2-oxo-1,2-dihydro-pyridin-3-yl)-2-methoxy-phenyl]-vinyl}-3-(2-oxo-oxazolidin-3-ylmethyl)-phenyl]-methanesulfonamide] |  | 5 | 
19 | COc1c(/C=C/c2ccc(NS(=O)(=O)CC(F)(F)F)cn2)cc(-c2cc(F)c[nH]c2=O)cc1C(C)(C)C [I-229, 2,2,2-Trifluoro-ethanesulfonic acid (6-{(E)-2-[3-tert-butyl-5-(5-fluoro-2-oxo-1,2-dihydro-pyridin-3-yl)-2-methoxy-phenyl]-vinyl}-pyridin-3-yl)-amide] |  | 2 | 
20 | CC(C)(C)c1cc(/C=C/c2ccc(NS(C)(=O)=O)cn2)c(O)c(-c2ccc[nH]c2=O)c1 [I-167, N-(6-{(E)-2-[5-tert-Butyl-2-hydroxy-3-(2-oxo-1,2-dihydro-pyridin-3-yl)-phenyl]-vinyl}-pyridin-3-yl)-methanesulfonamide] | 21 |  | 

Row | Compound | IC50 [1] [nM] | IC50 [2] [nM] | other results
21 | COc1c(CC(C(=O)O)c2ccc(NS(C)(=O)=O)cc2)cc(-c2ccc[nH]c2=O)cc1C(C)(C)C (stereo not shown) [I-179, 3-[3-tert-Butyl-2-methoxy-5-(2-oxo-1,2-dihydro-pyridin-3-yl)-phenyl]-2-(4-methanesulfonylamino-phenyl)-propionic acid] | 8 |  | 
22 | CC(C)(C)c1cc(/C=C/c2ccc(NS(C)(=O)=O)cc2C(=O)O)cc(-c2ccc[nH]c2=O)c1 [I-159, 2-{(E)-2-[3-tert-Butyl-5-(2-oxo-1,2-dihydro-pyridin-3-yl)-phenyl]-vinyl}-5-methanesulfonylamino-benzoic acid] | 8 |  | 
23 | COc1ccc(-c2cc(/C=C/c3ccc(NS(C)(=O)=O)cc3C(=O)O)c(OC)c(C(C)(C)C)c2)c(=O)[nH]1 [I-211, 2-{(E)-2-[3-tert-Butyl-2-methoxy-5-(6-methoxy-2-oxo-1,2-dihydro-pyridin-3-yl)-phenyl]-vinyl}-5-methanesulfonylamino-benzoic acid] |  | 4 | 
24 | COc1c(/C=C/c2ccc(NS(C)(=O)=O)cc2)cc(-c2cc(Cl)c[nH]c2=O)cc1C1CC1 [I-292, N-(4-{(E)-2-[5-(5-Chloro-2-oxo-1,2-dihydro-pyridin-3-yl)-3-cyclopropyl-2-methoxy-phenyl]-vinyl}-phenyl)-methanesulfonamide] |  | 29 | 
25 | CN(C(=O)c1ccc(NS(C)(=O)=O)cc1)c1cc(-c2ccc[nH]c2=O)cc(C(C)(C)C)c1 [I-293, N-[3-tert-Butyl-5-(2-oxo-1,2-dihydro-pyridin-3-yl)-phenyl]-4-methanesulfonylamino-N-methyl-benzamide] | 7 |  | 
26 | COc1c(NC(=O)c2ccc(O)cc2F)cc(-c2ccc[nH]c2=O)cc1C(C)(C)C [I-252, N-[3-tert-Butyl-2-methoxy-5-(2-oxo-1,2-dihydro-pyridin-3-yl)-phenyl]-2-fluoro-4-hydroxy-benzamide] | 38 |  | 
27 | COCc1cc(NS(C)(=O)=O)ccc1/C=C/c1cc(-c2ccc(OC)[nH]c2=O)cc(C(C)(C)C)c1OC [I-209, N-(4-{(E)-2-[3-tert-Butyl-2-methoxy-5-(6-methoxy-2-oxo-1,2-dihydro-pyridin-3-yl)-phenyl]-vinyl}-3-methoxymethyl-phenyl)-methanesulfonamide] |  | 1 | 
28 | COc1c(C(=O)Nc2ccc(OCC(N)=O)cc2)cc(-c2ccc[nH]c2=O)cc1C(C)(C)C [I-113, 3-tert-Butyl-N-(4-carbamoylmethoxy-phenyl)-2-methoxy-5-(2-oxo-1,2-dihydro-pyridin-3-yl)-benzamide] | 133 |  | 
29 | COCCc1cc(NS(C)(=O)=O)ccc1/C=C/c1cc(-c2cc(F)c[nH]c2=O)cc(C(C)(C)C)c1OC [I-227, N-[4-{(E)-2-[3-tert-Butyl-5-(5-fluoro-2-oxo-1,2-dihydro-pyridin-3-yl)-2-methoxy-phenyl]-vinyl}-3-(2-methoxy-ethyl)-phenyl]-methanesulfonamide] |  | 1 | 
30 | CC(C)(C)c1cc(C#Cc2ccc(NS(C)(=O)=O)cc2F)c(O)c(-c2ccc[nH]c2=O)c1 [I-217, N-{4-[5-tert-Butyl-2-hydroxy-3-(2-oxo-1,2-dihydro-pyridin-3-yl)-phenylethynyl]-3-fluoro-phenyl}-methanesulfonamide] | 69 |  | 
31 | COc1c(CCc2ccc(NS(C)(=O)=O)cc2C(=O)O)cc(-c2cc(F)c[nH]c2=O)cc1C(C)(C)C [I-190, 2-{2-[3-tert-Butyl-5-(5-fluoro-2-oxo-1,2-dihydro-pyridin-3-yl)-2-methoxy-phenyl]-ethyl}-5-methanesulfonylamino-benzoic acid] |  | 1 | 
32 | COc1c(NC(=O)c2ccc(N)c(C)c2)cc(-c2ccc[nH]c2=O)cc1C(C)(C)C [I-278] | 14 |  | 
33 | COc1c(NC(=O)c2ccc(NCC(F)(F)F)nn2)cc(-c2ccc[nH]c2=O)cc1C(C)(C)C [I-248, 6-(2,2,2-Trifluoro-ethylamino)-pyridazine-3-carboxylic acid [3-tert-butyl-2-methoxy-5-(2-oxo-1,2-dihydro-pyridin-3-yl)-phenyl]-amide] | 19 |  | 
34 | CCOc1c(/C=C/c2ccc(NS(C)(=O)=O)cc2)cc(-c2ccc[nH]c2=O)cc1C(C)(C)C [I-249] |  | 11 | 
35 | COC(=O)c1cc(NS(C)(=O)=O)ccc1CCc1cc(-c2cc(F)c[nH]c2=O)cc(C(C)(C)C)c1OC [I-189] |  | 1 | 
36 | CS(=O)(=O)Nc1ccc(/C=C/c2cc(-c3ccc[nH]c3=O)cc(C3(Cl)CC3)c2)cc1 [I-274, N-(4-{(E)-2-[3-(1-Chloro-cyclopropyl)-5-(2-oxo-1,2-dihydro-pyridin-3-yl)-phenyl]-vinyl}-phenyl)-methanesulfonamide] |  | 2 | 
37 | COc1c(C(=O)Nc2cccc(O)c2C)cc(-c2ccc[nH]c2=O)cc1C(C)(C)C [I-185] | 854 |  | 
38 | COc1c(/C=C/c2ccc(N)nc2)cc(-c2ccc[nH]c2=O)cc1C(C)(C)C [I-171] | 4 |  | 
39 | COc1c(/C=C/c2ccc(NS(=O)(=O)CC3CC3)cc2)cc(-c2cc(F)c[nH]c2=O)cc1C(C)(C)C [I-153] | 8 |  | 
40 | COc1c(C(=O)NCCN(C)C)cc(-c2ccc[nH]c2=O)cc1C(C)(C)C [I-43] | 1750 |  | 
